Earlier results as cited in patent US20170259275A1, “PROCESS FOR SEPARATING AMINO AND/OR ORGANIC ACID-CONTAINING PARTICLES FROM A MIXTURE” (Sanovations B.V., priority 2014, published 2017).
Values belong to the compound of their own block, whether it stands above or below them.

Columns and labels:
[1] = 25° C., water
[2] = solid, crystalline form

Crystal Density [2]: 1.598 g/mL
Compound: NCC(=O)O [Glycine]

Aqueous Solubility [1]: 4.19 g/100 g | Crystal Density [2]: 1.412 g/mL
Compound: N[C@@H](Cc1c[nH]cn1)C(=O)O [Histidine]

Aqueous Solubility [1]: 4.117 g/100 g | Crystal Density [2]: 1.201 g/mL
Compound: CC[C@H](C)[C@H](N)C(=O)O [Isoleucine]

Aqueous Solubility [1]: 2.426 g/100 g
Compound: CC(C)C[C@H](N)C(=O)O [Leucine]

Aqueous Solubility [1]: 3.381 g/100 g | Crystal Density [2]: 1.311 g/mL
Compound: CSCC[C@H](N)C(=O)O [Methionine]

Aqueous Solubility [1]: 2.965 g/100 g | Crystal Density [2]: 1.315 g/mL
Compound: N[C@@H](Cc1ccccc1)C(=O)O [Phenylalanine]

Crystal Density [2]: 1.376 g/mL
Compound: O=C(O)[C@@H]1CCCN1 [Proline]

Crystal Density [2]: 1.582 g/mL
Compound: N[C@@H](CO)C(=O)O [Serine]

Crystal Density [2]: 1.499 g/mL
Compound: C[C@@H](O)[C@H](N)C(=O)O [Threonine]

Crystal Density [2]: 1.403 g/mL
Compound: N[C@@H](Cc1ccc(O)cc1)C(=O)O [Tyrosine]

Aqueous Solubility [1]: 8.85 g/100 g | Crystal Density [2]: 1.267 g/mL
Compound: CC(C)[C@H](N)C(=O)O [Valine]

The next lines start with the compound.

Compound: C[C@H](N)C(=O)O [Alanine]
Aqueous Solubility [1]: 16.65 g/100 g | Crystal Density [2]: 1.371 g/mL

Compound: N=C(N)NCCC[C@H](N)C(=O)O [Arginine]
Crystal Density [2]: 1.325 g/mL

Compound: NC(=O)C[C@H](N)C(=O)O [Asparagine]
Aqueous Solubility [1]: 3.53 g/100 g

Compound: N[C@@H](CC(=O)O)C(=O)O [Aspartic Acid]
Crystal Density [2]: 1.636 g/mL

Compound: N[C@@H](CS)C(=O)O [Cysteine]
Aqueous Solubility [1]: 28 g/100 g | Crystal Density [2]: 1.495 g/mL

Compound: N[C@@H](CCC(=O)O)C(=O)O [Glutamic Acid]
Crystal Density [2]: 1.566 g/mL

Compound: NC(=O)CC[C@H](N)C(=O)O [Glutamine]
Aqueous Solubility [1]: 2.5 g/100 g

Compound: NCCCC[C@H](N)C(=O)O [Lysine]
Aqueous Solubility [1]: 30 g/100 g | Crystal Density [2]: 1.237 g/mL

Compound: N[C@@H](Cc1c[nH]c2ccccc12)C(=O)O [Tryptophan]
Aqueous Solubility [1]: 1.136 g/100 g | Crystal Density [2]: 1.303 g/mL
